Entries after “also recorded” stand apart in the source; their conditions may differ.
Key:
[1] = test system: Abeta oligomer-induced synapse loss in primary hippocampal neurons; test: Abeta 1-42 oligomer binding and synapse loss assay; assay type: cell-based, rat
Protocol: Primary hippocampal neuronal culture is established as in the membrane trafficking assay above. […] Pretreatment with test compounds for 1 hr and addition of Abeta oligomers or no oligomer (vehicle alone) is followed by incubation for an additional 23 hrs.
The plates are then washed 3× with PBS for 5 min each. The plates are blocked at RT for 1 hr in 5% goat serum and 0.5% Triton X-100 in PBS. Primary antibodies (anti-MAP 2 polyclonal, Millipore #AB5622 and anti-Beta Amyloid 6E10 monoclonal, Covance #SIG-39300, at 1 microgram/ml, and rabbit polyclonal anti-synaptophysin, Anaspec, at 0.2 microgram/ml) were diluted 1:1000 in 5% goat serum with PBS. Primary antibodies are incubated overnight at 4° C. The plates are then washed 3× with PBS for 5 min each. Secondary antibodies (Alex Flor 488 polyclonal, Invitrogen #A11008 and Alexa Flor 647 monoclonal, Invitrogen #A21235) are diluted 1:1000 in 5% goat serum with PBS. Secondary antibodies are incubated at RT for 1 hr. The plates are washed once with PBS. DAPI (4′,6-diamidino-2-phenylindole, Invitrogen) is then applied at 0.03 ug/ul and incubated at RT for 5 min, then washed with PBS.

[2] = test system: MDA-MB-435 or MDA-MB231 or SKOV-3 cells; test: Tumor cell viability (MTS) assay; assay type: cell-based
Protocol: The cytotoxicity of test compounds is determined using the CellTiter96 Aqueous One Solution Assay (Promega, Madison, Wis.). Briefly, MDA-MB-435 or MDA-MB231 or SKOV-3 cells were seeded in a 96-well plate at a density of 2000 cells/well on the day prior to treatment with sigma-2 receptor selective ligands. […] The plate is read at 490 nm in a Victor3 plate reader (PerkinElmer Life and Analytical Sciences, Shelton, Conn.). The EC^50 value, defined as the concentration of the sigma ligand required to inhibit cell viability by 50% relative to untreated cells, is determined from the dose response curve for each cell line. Siramesine is accepted as an agonist.

[3] = test system: neurons; conditions: 24 hours treatment; cited from earlier work
[4] = test system: caspase-3; conditions: cited from earlier work; for caspase-3 activation: tumor cells and neurons
[5] = target: Sigma-1 receptor; test: Sigma-1 receptor competitive radioligand binding assay; conditions: read-out: Sigma-1 Receptor Affinity, Ki
Protocol: Radioligand binding assays for Sigma-1 receptors and Sigma-2 receptors were carried out by a commercial contract research organization. For Sigma-1 binding, various concentrations of test compounds from 100 μM to 1 nM were used to displace 8 nM [^3H](+)pentazocine from endogenous receptors on Jurkat cell membranes (Ganapathy M E et al. 1991, J Pharmacol. Exp. Ther. 289:251-260). 10 μM Haloperidol was used to define non-specific binding. […] 10 μM Haloperidol was used to define non-specific binding. Reactions were terminated by rapid filtration through Whatman GF/C filters using a Brandel 12R cell harvester followed by two washes with ice-cold buffer. Radioactivity on the dried filter discs was measured using a liquid scintillation analyzer (Tri-Carb 2900TR; PerkinElmer Life and Analytical Sciences). The displacement curves were plotted and the Ki values of the test ligands for the receptor subtypes were determined using GraphPad Prism (GraphPad Software Inc., San Diego, Calif.). The percentage specific binding was determined by dividing the difference between total bound (disintegrations per minute) and nonspecific bound (disintegrations per minute) by the total bound (disintegrations per minute).

[6] = target: Sigma-2 receptor; test: Sigma-2 receptor competitive radioligand binding assay; design: species or system rat; conditions: read-out: Sigma-2 Receptor Affinity, Ki
Protocol: Radioligand binding assays for Sigma-1 receptors and Sigma-2 receptors were carried out by a commercial contract research organization. For Sigma-1 binding, various concentrations of test compounds from 100 μM to 1 nM were used to displace 8 nM [^3H](+)pentazocine from endogenous receptors on Jurkat cell membranes (Ganapathy M E et al. 1991, J Pharmacol. Exp. Ther. 289:251-260). 10 μM Haloperidol was used to define non-specific binding. For Sigma-2 receptors various concentrations of test compounds from 100 μM to 1 nM were used to displace 5 nM [^3H] […] (Bowen W D, et al. 1993, Mol. Neuropharmcol 3:117-126). 10 μM Haloperidol was used to define non-specific binding. Reactions were terminated by rapid filtration through Whatman GF/C filters using a Brandel 12R cell harvester followed by two washes with ice-cold buffer. Radioactivity on the dried filter discs was measured using a liquid scintillation analyzer (Tri-Carb 2900TR; PerkinElmer Life and Analytical Sciences). The displacement curves were plotted and the Ki values of the test ligands for the receptor subtypes were determined using GraphPad Prism (GraphPad Software Inc., San Diego, Calif.). The percentage specific binding was determined by dividing the difference between total bound (disintegrations per minute) and nonspecific bound (disintegrations per minute) by the total bound (disintegrations per minute).
The affinity of candidate sigma-2 ligand compounds at sigma-1 and sigma-2 receptors was also determined by displacement of different known labeled sigma-2 or sigma-1 ligands. Filtration assays were conducted according the previously published procedure (Xu, et al., 2005). Test compounds were dissolved in N,N-Dimethylformamide (DMF), dimethyl sulfoxide (DMSO) or ethanol and then diluted in 50 mM Tris-HCl pH 7.4 buffer containing 150 mM NaCl and 100 mM EDTA. Membrane homogenates were made from guinea pig brain for sigma-1 binding assay and rat liver for sigma-2 binding assay. Membrane homogenates were diluted with 50 mM Tris-HCl buffer, pH 8.0 and incubated at 25° C. in a total volume of 150 uL in 96 well plates with the radioligand and test compounds with concentrations ranging from 0.1 nM to 10 uM. After incubation was completed, the reactions were terminated by the addition of 150 uL of ice-cold wash buffer (10 mM Tris HCl, 150 mM NaCl, pH 7.4) using a 96 channel transfer pipette (Fisher Scientific, Pittsburgh, Pa.) and the samples harvested and filtered rapidly through 96 well fiber glass filter plate (Millipore, Billerica, Mass.) that had been presoaked with 100 uL of 50 mM Tris-HCl buffer. Each filter was washed four times with 200 uL of ice-cold wash buffer (10 mM Tris-HCl, 150 mM NaCl, pH 7.4). A Wallac 1450 MicroBeta liquid scintillation counter (Perkin Elmer, Boston, Mass.) was used to quantitate the bound radioactivity.
Nonspecific binding was determined from samples that contained 10 uM of cold haloperidol.
The binding affinity, Ki values was calculated using the method of Cheng and Prusoff.

[7] = target: potassium channel hERG (Homo sapiens (Human), UniProt Q12809); test: In vitro toxicity, hERG inhibition; assay type: biochemical
potassium channel hERG, sequence (Q12809 whole entry): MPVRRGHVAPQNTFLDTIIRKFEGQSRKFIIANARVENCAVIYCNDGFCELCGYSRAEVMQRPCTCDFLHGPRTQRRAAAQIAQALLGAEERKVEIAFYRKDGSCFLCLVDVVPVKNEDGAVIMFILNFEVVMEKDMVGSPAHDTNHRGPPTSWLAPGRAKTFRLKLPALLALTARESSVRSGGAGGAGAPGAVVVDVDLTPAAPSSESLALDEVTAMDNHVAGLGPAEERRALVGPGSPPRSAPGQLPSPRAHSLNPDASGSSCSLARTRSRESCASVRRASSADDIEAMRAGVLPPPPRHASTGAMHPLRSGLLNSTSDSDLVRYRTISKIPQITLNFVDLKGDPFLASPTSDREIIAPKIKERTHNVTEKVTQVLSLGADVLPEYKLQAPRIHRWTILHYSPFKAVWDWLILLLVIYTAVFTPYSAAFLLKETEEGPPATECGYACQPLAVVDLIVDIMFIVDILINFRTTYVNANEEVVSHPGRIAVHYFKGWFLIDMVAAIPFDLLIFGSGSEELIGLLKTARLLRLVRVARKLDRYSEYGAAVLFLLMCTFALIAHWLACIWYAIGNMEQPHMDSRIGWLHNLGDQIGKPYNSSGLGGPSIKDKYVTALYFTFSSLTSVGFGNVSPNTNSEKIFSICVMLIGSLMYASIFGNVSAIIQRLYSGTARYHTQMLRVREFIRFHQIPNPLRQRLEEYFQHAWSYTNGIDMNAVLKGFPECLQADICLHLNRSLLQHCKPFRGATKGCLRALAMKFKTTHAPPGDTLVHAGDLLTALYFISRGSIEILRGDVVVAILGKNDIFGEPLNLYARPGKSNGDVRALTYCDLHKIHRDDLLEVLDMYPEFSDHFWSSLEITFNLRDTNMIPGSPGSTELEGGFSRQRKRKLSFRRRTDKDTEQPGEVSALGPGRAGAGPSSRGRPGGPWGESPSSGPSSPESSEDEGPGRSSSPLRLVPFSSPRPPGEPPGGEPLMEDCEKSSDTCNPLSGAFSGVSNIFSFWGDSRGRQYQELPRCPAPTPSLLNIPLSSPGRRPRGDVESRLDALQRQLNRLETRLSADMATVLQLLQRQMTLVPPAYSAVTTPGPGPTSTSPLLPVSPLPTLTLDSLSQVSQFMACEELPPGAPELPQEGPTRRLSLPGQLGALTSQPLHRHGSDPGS
Protocol: In vitro toxicity for Test Compounds is tested in a number of standard assays.

[8] = test system: Abeta oligomer-induced membrane trafficking deficits in primary hippocampal neurons; test: Membrane trafficking/exocytosis (MTT) assay; conditions: read-out: Membrane Trafficking EC50; compound dosed prior to Abeta oligomer addition
Protocol: Primary hippocampal neurons from E18 Sprague-Dawley rat embryos were plated at optimized concentrations in 384 well plates in NB media (Invitrogen). Neurons were maintained in cultures for 3 weeks, with twice weekly feeding of NB media with N2 supplement (Invitrogen).
MTT reagent (3-(4,5-dimethylthizaol-2yl)-2,5diphenyl tetrazolium bromide) (Roche Molecular Biochemicals) was reconstituted in phosphate buffered saline to 5 mg/mL. 10 μL of MTT labeling reagent is added to each well and incubated at 37° C. for 1 h, then imaged. Exocytosis was assessed by automated microscopy and image processing to quantify the amount of endocytosed and exocytosed formazan.
Each assay plate was formatted so that compounds are tested with and without Abeta oligomer on each plate. […] Reduced formazan was first visible in intracellular vesicles. […] The dye precipitated in the aqueous environment of the culture and formed needle-shaped crystals on the surface of the neuron.

[9] = test system: neuronal cultures; test: Functional neuronal phenotype in neuronal cultures; assay type: cell-based; design: key: Antagonist: antagonists (block Abeta signaling); Agonist: agonists (block Abeta signaling with U-shaped dose-response curve and toxicity at high doses); Inactive: inactive (no effect in neuronal cultures)
Protocol: Neuronal cultures are treated with various concentrations of sigma compounds for 24 hours and nuclear intensity compared to vehicle is measured.

[10] = Mouse liver microsome (MLM) stability; assay type: in vitro ADME; conditions: mouse, microsomes
Protocol: A first pharmacokinetic study was performed in microsomes of mice mouse liver microsomes, MLM) by a commercial contract research organization. The studies were performed according to Obach, R. S et al. (1997) J. Pharmacol. Exp. Ther., 283: 46-58, which is incorporated herein by reference.

Structure (SMILES)	elimination of Abeta oligomer-induced synapse loss [1]	synapse loss recovery [1] [%]	Action [2]	nuclear morphology / nuclear intensity in neurons [3]	caspase-3 activation [4]	inhibition of caspase-3 activation ([4]; tumor cells)	Ki [5] [µM]	Ki [6] [µM]	IC50 [7] [µM]	EC50 [8] [µM]	neuronal phenotype [9]	Mouse liver microsomes, MLM t½ [10] [min]	IC50 ([2]; read-out: IC50, 48 hrs., Tumor cell viability, 48 hrs) [µM]
CCC(Oc1ccc(Cl)cc1)C(=O)OC1CC2CCC(C1)N2C (stereo not drawn) [SM-21]	only weakly active in eliminating synapse loss	20											
COc1cc2c(cc1OC)CN(CCCCNC(=O)c1cc(C)ccc1OC)CC2 [RHM-1, N-[4-(3,4-dihydro-6,7-dimethoxyisoquinolin-2(1H)-yl)butyl]-2-methoxy-5-methylbenzamide]			Antagonist	do not decrease nuclear intensity	do not induce caspase-3 activity	inhibits the activation in tumor cells							
CC(C)(CCc1ccc(F)cc1)N1Cc2ccc(F)cc2C1 [compound 35]							0.0021	0.0036	0.13	2.2	Antagonist	9	
Fc1ccc(-n2cc(CCCCN3CCC4(CC3)OCc3ccccc34)c3ccccc32)cc1 [Siramesine]			Full agonist	cause significant abnormal nuclear morphology in neurons	activate caspase-3 in tumor cells and neurons; also recorded: induces caspase-3 activity								
CC(C)(CCc1ccc(F)cc1)N1Cc2cc3c(cc2C1)OCO3 [compound 36]							0.0041	0.0052	0.019	0.86	Antagonist	47	
COc1ccc(C)cc1NC(=O)OC1C[C@H]2CCC[C@@H](C1)N2CCCCCCN (stereo partly drawn) [SV-119]			Full agonist	cause significant abnormal nuclear morphology in neurons	activate caspase-3 in tumor cells and neurons								21.7 ± 2.9
C[C@H](CCc1ccc(Cl)c(Cl)c1)N1Cc2cc3c(cc2C1)OCO3 [compound 10]							0.0014	0.005	41	0.5	Antagonist	8	
COc1cc(CCC(C)(C)N2Cc3cccc(C(=O)NCCN(C)C)c3C2)ccc1O [compound 78]							10	10	110	8.8	Neuroactive	450	
CC(C)Oc1cc(CC[C@@H](C)N2Cc3cc4c(cc3C2)OCO4)ccc1O [compound 25]							0.0057	0.11	3.2	> 20	Inactive/	4	
CCCN(CCC)CCc1ccc(OC)c(OCCc2ccccc2)c1 [NE-100]	completely eliminated synapse loss												
COc1cc(CCC(C)(C)N2Cc3cccc(C(=O)N4CCN(C(C)=O)CC4)c3C2)ccc1O [compound 83]							10	10	10	100	Inactive	336	
CC(C)(CCc1ccc(O)c(OC(F)(F)F)c1)N1Cc2cccc(C(=O)O)c2C1 [compound 56]							10	10	49	0.3	Weak and Antagonist	617	
CC(C)Oc1ccc(CCC(C)(C)N2Cc3ccc(F)cc3C2)cc1OC(C)C [compound 42]							0.1	0.0062	0.8	> 20	Agonist	14	
C[C@H](CCc1ccc(F)cc1)N1Cc2cc3c(cc2C1)OCO3 [compound 23]							0.016	0.013	0.37	< 0.25	Antagonist	5	
CC(C)(C)Oc1cc(CCC(C)(C)N2Cc3ccc(S(C)(=O)=O)cc3C2)ccc1O [compound 62]							0.063	0.0085	26	0.06	Antagonist	45	
COc1cc(CC[C@@H](C)N2Cc3cc4c(cc3C2)OCO4)ccc1OCCO [compound 52]							0.13	0.54	3.2	0.3	Antagonist	97	
COc1cc(CCC(C)(C)N2Cc3cccc(C(=O)NCCO)c3C2)ccc1O [compound 79]							10	0.46	11	100	Inactive	144	
CC(C)COc1cc(CCC(C)(C)N2Cc3cccc(F)c3C2)ccc1O [compound 88]							0.096	0.0013	2.8	0.36	Neuroactive	28	
CN(C)C(=O)c1cccc2c1CN(C(C)(C)CCc1ccc(O)c(OC(F)(F)F)c1)C2 [compound 57]							0.7	0.095	5	> 20	Inactive	26	
CC(C)(CCc1ccc(O)c(OC(F)(F)F)c1)N1Cc2cccc(F)c2C1 [compound 54]							0.074	0.018	2.5	6.5	Antagonist	12	
COc1cc(CCC(C)(C)N2Cc3ccc(F)cc3C2)ccc1OCCO [compound 45]							2.8	0.19	0.22	> 20	Inactive	96	
C[C@H](CCc1ccc(F)cc1)N1Cc2cccc(F)c2C1 [compound 21]							0.33	0.012	15	> 20	Inactive	7	
COc1cc2c(cc1OC)CN(C(C)(C)CCc1ccc(OCCO)c(OC)c1)C2 [compound 48]							3.6	0.022	1.7	> 20	Inactive	582	
C[C@H](CCc1ccc(O)c(OC(F)(F)F)c1)N1Cc2cc3c(cc2C1)OCO3 [compound 24]							0.0049	0.052	0.86	0.5	Antagonist	5	
C[C@H](CCc1ccc(F)cc1)N1Cc2ccc(F)cc2C1 [compound 22]							0.044	0.023	0.35	< 0.25	Antagonist	7	
O=C(CCCN1CCC(O)(c2ccc(Cl)cc2)CC1)c1ccc(F)cc1 [haloperidol]	completely eliminated synapse loss												

From US9796672B2, “Isoindoline compositions and methods for treating neurodegenerative disease” (Cognition Therapeutics, Inc., priority 2014, dated 2017)
